From ChEMBL document CHEMBL4411294, “Synthesis and biological evaluation of cyanoaziridine phosphine oxides and phosphonates with antiproliferative activity” (Eur J Med Chem, 2019)

How the values were obtained:
[1] = system: MRC5; test: Cytotoxicity against human MRC5 cells assessed as reduction in cell viability after 48 hrs by CCK8 assay; format: cell-based; conditions: MRC5, 48 h
[2] = system: A549; test: Cytotoxicity against human A549 cells assessed as reduction in cell viability after 48 hrs by CCK8 assay; format: functional, cell-based; conditions: A549, 48 h
[3] = system: HEK293; test: Cytotoxicity against human HEK293 cells assessed as reduction in cell viability after 48 hrs by CCK8 assay; format: cell-based; conditions: HEK293, 48 h

| SMILES | IC50 [1] | IC50 [2] | IC50 [3] |
| --- | --- | --- | --- |
| CC[C@@]1(C#N)N[C@H]1P(=O)(c1ccccc1)c1ccccc1 (relative stereo) | > 50 µM | 3.3 µM | > 50 µM |
| COc1cccc2c1C(=O)c1c(O)c3c(c(O)c1C2=O)C[C@@](O)(C(=O)CO)C[C@@H]3O[C@H]1C[C@H](N)[C@H](O)[C@H](C)O1 [DOXORUBICIN] | > 50 µM |  |  |
| Cc1ccc(S(=O)(=O)N2[C@@H](P(=O)(c3ccccc3)c3ccccc3)[C@]2(C)C#N)cc1 (relative stereo) | > 50 µM | 3.1 µM | > 50 µM |
| C[C@@]1(C#N)N[C@H]1P(=O)(c1ccccc1)c1ccccc1 (relative stereo) | > 50 µM | 2 µM | > 50 µM |
| CCOP(=O)(OCC)[C@@H]1N(S(=O)(=O)c2ccc(C)cc2)[C@]1(C#N)CC (relative stereo) | > 50 µM | 4.9 µM | > 50 µM |
| Cc1ccc(S(=O)(=O)N2[C@@H](P(=O)(OC(C)C)OC(C)C)[C@]2(C)C#N)cc1 (relative stereo) | > 50 µM | 3.4 µM | > 50 µM |
| CCOP(=O)(OCC)[C@@H]1N(S(=O)(=O)c2ccc(C)cc2)[C@@]1(C)C#N (relative stereo) | > 50 µM |  | > 50 µM |
| C[C@]1(C#N)[C@H](P(=O)(c2ccccc2)c2ccccc2)N1C(=O)OCc1ccccc1 (relative stereo) | > 50 µM | 8.1 µM | 30.1 µM |
| CC[C@]1(C#N)[C@H](P(=O)(c2ccccc2)c2ccccc2)N1S(=O)(=O)c1ccc(C)cc1 (relative stereo) | > 50 µM | 2.3 µM | 43.2 µM |
| C[C@@]1(C#N)N[C@H]1P(=O)(O)O (relative stereo) | > 50 µM | 8.5 µM | > 50 µM |
